Square brackets hold non-standard residues; d marks the D form. Peptide text beside a SMILES is read from it. * marks the point of attachment. Dopa = N[C@@H](Cc1ccc(O)c(O)c1)C(=O)O; αMeF = C[C@](N)(Cc1ccccc1)C(=O)O; Cha = N[C@@H](CC1CCCCC1)C(=O)O; Ac6c = NC1(C(=O)O)CCCCC1; Ac5c = NC1(C(=O)O)CCCC1; Aib = CC(C)(N)C(=O)O; OcHex = C1CCC(O*)CC1; OBn = c1ccc(CO*)cc1; OiPr = CC(C)O*
Experiments:
Assay type in all cases: functional
Rattus norvegicus [1] = assay: Antiparkinsonian activity in 6-hydroxydopamine lesioned Wistar rat assessed as AUC activity by measuring contralateral rotations at 63.4 umol/kg, po measured every 10 mins for 240 mins relative to L-DOPA
Rattus norvegicus [2] = assay: Antiparkinsonian activity in 6-hydroxydopamine lesioned Wistar rat assessed as duration of activity at 63.4 umol/kg, po measured every 10 mins for 240 mins relative to L-DOPA
Rattus norvegicus [3] = assay: Antiparkinsonian activity in 6-hydroxydopamine lesioned Wistar rat assessed as peak activity by measuring contralateral rotations at 63.4 umol/kg, po measured every 10 mins for 240 mins relative to L-DOPA
Rattus norvegicus [4] = assay: Antiparkinsonian activity in 6-hydroxydopamine lesioned Wistar rat assessed as AUC activity by measuring contralateral rotations at 63.4 umol/kg, ip measured every 10 mins for 240 mins relative to L-DOPA
Rattus norvegicus [5] = assay: Antiparkinsonian activity in 6-hydroxydopamine lesioned Wistar rat assessed as duration of activity at 63.4 umol/kg, ip measured every 10 mins for 240 mins relative to L-DOPA
Rattus norvegicus [6] = assay: Antiparkinsonian activity in 6-hydroxydopamine lesioned Wistar rat assessed as peak activity by measuring contralateral rotations at 63.4 umol/kg, ip measured every 10 mins for 240 mins relative to L-DOPA

Row | Structure (SMILES) | Activity (Rattus norvegicus [1]) [%] | Activity (Rattus norvegicus [2]) [%] | Activity (Rattus norvegicus [3]) [%] | Activity (Rattus norvegicus [4]) [%] | Activity (Rattus norvegicus [5]) [%] | Activity (Rattus norvegicus [6]) [%]
1 | CC(C)CCOC(=O)[C@H](Cc1ccc(O)c(O)c1)NC(=O)C(C)(C)N.Cl | 79 | 49 | 59 | – | – | –
2 | COC(=O)[C@H](Cc1ccc(OC(C)=O)c(OC(C)=O)c1)NC(=O)C(C)(C)N.Cl | 55 | 73 | 69 | – | – | –
3 | COC(=O)[C@H](Cc1ccc(OC(C)=O)c(OC(C)=O)c1)NC(=O)C1(N)CCCCC1.Cl | 42 | 42 | 55 | – | – | –
4 | COC(=O)[C@H](Cc1ccc(OC(C)=O)c(OC(C)=O)c1)NC(=O)C1(N)CCCC1.Cl | 39 | 44 | 61 | – | – | –
5 | COC(=O)[C@H](Cc1ccc(OC(C)=O)c(OC(C)=O)c1)NC(=O)[C@@H](N)CC1CCCCC1.Cl | – | – | – | 32 | 27 | 51
6 | CC(=O)Oc1ccc(C[C@H](NC(=O)C(C)(C)N)C(=O)O)cc1OC(C)=O.Cl | 42 | 45 | 66 | – | – | –
7 | COC(=O)[C@H](Cc1ccc(O)c(O)c1)NC(=O)C1(N)CCCC1.Cl (H-[Ac5c]-[Dopa]-OMe) | 78 | 97 | 105 | – | – | –
8 | COC(=O)[C@H](Cc1ccc(O)c(O)c1)NC(=O)C1(N)CCCCC1.Cl (H-[Ac6c]-[Dopa]-OMe) | 88 | 84 | 107 | – | – | –
9 | CC(C)(N)C(=O)N[C@@H](Cc1ccc(O)c(O)c1)C(=O)OCc1ccccc1.Cl (H-[Aib]-[Dopa]-OBn) | 46 | 38 | 71 | – | – | –
10 | CC(C)(N)C(=O)N[C@@H](Cc1ccc(O)c(O)c1)C(=O)O.Cl (H-[Aib]-[Dopa]-OH) | 65 | 57 | 80 | – | – | –
11 | COC(=O)[C@H](Cc1ccc(O)c(O)c1)NC(=O)C(C)(C)N.Cl (H-[Aib]-[Dopa]-OMe) | – | – | – | 69 | 63 | 77
12 | CC(C)(N)C(=O)N[C@@H](Cc1ccc(O)c(O)c1)C(=O)OC1CCCCC1.Cl (H-[Aib]-[Dopa]-OcHex) | 105 | 70 | 82 | – | – | –
13 | CC(C)OC(=O)[C@H](Cc1ccc(O)c(O)c1)NC(=O)C(C)(C)N.Cl (H-[Aib]-[Dopa]-OiPr) | 116 | 72 | 149 | – | – | –
14 | COC(=O)[C@H](Cc1ccc(O)c(O)c1)NC(=O)[C@@H](N)CC1CCCCC1.Cl (H-[Cha]-[Dopa]-OMe) | 40 | 45 | 53 | – | – | –
15 | C[C@](N)(Cc1ccccc1)C(=O)N[C@@H](Cc1ccc(O)c(O)c1)C(=O)O.Cl (H-[αMeF]-[Dopa]-OH) | 26 | 40 | 37 | – | – | –
